The record followed here is ChEMBL document CHEMBL3997792, “Identification of the First Selective Activin Receptor-Like Kinase 1 Inhibitor, a Reversible Version of L-783277” (J Med Chem, 2017).

Activity calls are given as the source filed them. The rule behind the calls is not given here.

In data set [1] the target is TGF-beta receptor type-1 (Homo sapiens, UniProt P36897). The data set is described as follows: Inhibition of human ALK5 using casein as substrate in presence of 10 uM ATP by radiometric kinase assay.
The target in data set [2] is Activin receptor type-1 (Homo sapiens, UniProt Q04771). The data set is described as follows: Inhibition of human ALK2 using casein as substrate in presence of 10 uM ATP by radiometric kinase assay.
Data set [3] deals with T1, Activin receptor type-1-like (Mus musculus) (UniProt Q61288).
T1 sequence (whole entry): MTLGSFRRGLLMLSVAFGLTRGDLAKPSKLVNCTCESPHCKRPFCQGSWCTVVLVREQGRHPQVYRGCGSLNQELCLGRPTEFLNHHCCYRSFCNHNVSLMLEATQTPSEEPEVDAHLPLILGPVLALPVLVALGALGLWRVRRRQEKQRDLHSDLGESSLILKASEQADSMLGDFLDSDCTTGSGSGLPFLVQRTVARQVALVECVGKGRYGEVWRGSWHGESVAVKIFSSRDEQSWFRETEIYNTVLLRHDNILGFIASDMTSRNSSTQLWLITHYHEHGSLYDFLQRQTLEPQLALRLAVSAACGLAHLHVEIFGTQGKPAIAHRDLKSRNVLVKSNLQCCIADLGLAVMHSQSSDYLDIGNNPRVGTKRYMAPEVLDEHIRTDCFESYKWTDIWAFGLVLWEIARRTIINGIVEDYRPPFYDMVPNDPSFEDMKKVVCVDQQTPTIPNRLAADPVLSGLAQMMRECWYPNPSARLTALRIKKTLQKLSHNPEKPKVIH
In words: Inhibition of BMP9-stimulated ALK1 in mouse C2C12 cells assessed as decrease in AKT phosphorylation at S473 at 0.1 to 10 uM pretreated for 2 hrs followed by BMP9-stimulation after 30 mins by western blot analysis. The format is cell-based.

For data set [4], the system named is HUVEC. In words: Angiogenic activity in HUVEC assessed as increase in vessel areas at 2 to 50 uM by microfluidic chip based 3D angiogenesis assay. It counts as functional, cell-based. Particulars: Homo sapiens.
The test system of data set [5] is HUVEC. The data set is described as follows: Angiogenic activity in HUVEC assessed as increase in angiogenic sprouting at 2 to 50 uM by microfluidic chip based 3D angiogenesis assay. It counts as functional, cell-based. Particulars: Homo sapiens.
In data set [6] the target is T1, Activin receptor type-1-like (Mus musculus). In words: Inhibition of BMP9-stimulated ALK1 in mouse C2C12 cells assessed as reduction in Smad1/5 phosphorylation at 10 uM pretreated for 2 hrs followed by BMP9-stimulation after 30 mins by western blot analysis relative to control. It counts as cell-based. Background: A western blot detects proteins with antibodies after separation by electrophoresis.

Data set [7] has the same target. The data set is described as follows: Inhibition of ALK1 in mouse C2C12 cells assessed as downregulation of BMP9-induced Id1 protein levels at 10 uM pretreated for 2 hrs followed by BMP9-stimulation after 30 mins by western blot analysis. It counts as cell-based.
Data set [8] has as its target Dual specificity mitogen-activated protein kinase kinase 6 (Homo sapiens) (UniProt P52564). The data set is described as follows: Inhibition of human MKK6 at 1 uM using p38a as substrate in presence of [gamma-33P]-ATP by scintillation counting method relative to control.
The target in data set [9] is Bone morphogenetic protein receptor type-1A (Homo sapiens, UniProt P36894). The data set is described as follows: Inhibition of human ALK3 using casein as substrate in presence of 10 uM ATP by radiometric kinase assay.
Data set [10] deals with Activin receptor type-1-like (Homo sapiens, UniProt P37023). In words: Inhibition of human ALK1 using casein as substrate in presence of [gamma-33P]-ATP by scintillation counting method.
Data set [11] addresses ALK4 (activin receptor type-1B) (Homo sapiens, UniProt P36896). In words: Inhibition of human ALK4 at 10 uM using casein as substrate in presence of 200 uM ATP by radiometric kinase assay relative to control. Particulars: human ALK4 kinase (activin receptor type-1B), probe casein.
Data set [12] has as its target ALK3 (bone morphogenetic protein receptor type-1A) (Homo sapiens, UniProt P36894). The data set is described as follows: Inhibition of human ALK3 at 10 uM using casein as substrate in presence of 200 uM ATP by radiometric kinase assay relative to control. Particulars: probe casein.
Data set [13] addresses T1, Activin receptor type-1-like (Mus musculus). In words: Inhibition of BMP9-stimulated ALK1 in mouse C2C12 cells assessed as decrease in ERK1/2 phosphorylation at 0.1 to 10 uM pretreated for 2 hrs followed by BMP9-stimulation after 30 mins by western blot analysis. It counts as cell-based.
For data set [14], the target named is Activin receptor type-1B (Homo sapiens, UniProt P36896). In words: Inhibition of human ALK4 using casein as substrate in presence of 10 uM ATP by radiometric kinase assay.
Chain of Activin receptor type-1B (P36896 whole entry): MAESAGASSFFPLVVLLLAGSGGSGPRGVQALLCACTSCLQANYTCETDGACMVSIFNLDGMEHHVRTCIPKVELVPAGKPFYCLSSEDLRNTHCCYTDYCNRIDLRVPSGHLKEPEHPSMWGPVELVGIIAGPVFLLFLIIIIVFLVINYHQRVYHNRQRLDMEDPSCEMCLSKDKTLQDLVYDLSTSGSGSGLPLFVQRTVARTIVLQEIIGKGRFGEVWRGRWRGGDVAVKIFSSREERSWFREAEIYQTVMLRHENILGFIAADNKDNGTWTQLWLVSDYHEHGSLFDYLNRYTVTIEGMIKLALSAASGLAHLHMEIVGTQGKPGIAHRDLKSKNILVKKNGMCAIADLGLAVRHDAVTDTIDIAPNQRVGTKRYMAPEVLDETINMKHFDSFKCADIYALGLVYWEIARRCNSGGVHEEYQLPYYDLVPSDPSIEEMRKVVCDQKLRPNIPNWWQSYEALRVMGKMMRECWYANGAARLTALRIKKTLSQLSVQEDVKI

Chain of ALK3 (bone morphogenetic protein receptor type-1A) (P36894 whole entry): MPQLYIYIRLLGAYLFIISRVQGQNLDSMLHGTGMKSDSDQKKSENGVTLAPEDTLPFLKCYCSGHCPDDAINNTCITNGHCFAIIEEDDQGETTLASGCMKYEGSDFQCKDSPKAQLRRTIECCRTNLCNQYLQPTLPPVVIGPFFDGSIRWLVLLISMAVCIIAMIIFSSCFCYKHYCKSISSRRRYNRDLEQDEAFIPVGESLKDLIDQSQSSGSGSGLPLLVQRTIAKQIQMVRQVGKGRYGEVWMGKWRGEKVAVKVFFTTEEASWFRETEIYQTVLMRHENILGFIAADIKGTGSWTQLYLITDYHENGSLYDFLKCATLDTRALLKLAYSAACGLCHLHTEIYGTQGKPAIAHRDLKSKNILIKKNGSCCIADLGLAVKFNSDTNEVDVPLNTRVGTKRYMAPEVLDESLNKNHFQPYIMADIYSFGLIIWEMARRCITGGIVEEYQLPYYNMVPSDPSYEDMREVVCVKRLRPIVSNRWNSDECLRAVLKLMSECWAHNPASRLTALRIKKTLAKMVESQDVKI
Chain of Bone morphogenetic protein receptor type-1A (P36894 whole entry): as above
Chain of Activin receptor type-1-like (P37023 whole entry): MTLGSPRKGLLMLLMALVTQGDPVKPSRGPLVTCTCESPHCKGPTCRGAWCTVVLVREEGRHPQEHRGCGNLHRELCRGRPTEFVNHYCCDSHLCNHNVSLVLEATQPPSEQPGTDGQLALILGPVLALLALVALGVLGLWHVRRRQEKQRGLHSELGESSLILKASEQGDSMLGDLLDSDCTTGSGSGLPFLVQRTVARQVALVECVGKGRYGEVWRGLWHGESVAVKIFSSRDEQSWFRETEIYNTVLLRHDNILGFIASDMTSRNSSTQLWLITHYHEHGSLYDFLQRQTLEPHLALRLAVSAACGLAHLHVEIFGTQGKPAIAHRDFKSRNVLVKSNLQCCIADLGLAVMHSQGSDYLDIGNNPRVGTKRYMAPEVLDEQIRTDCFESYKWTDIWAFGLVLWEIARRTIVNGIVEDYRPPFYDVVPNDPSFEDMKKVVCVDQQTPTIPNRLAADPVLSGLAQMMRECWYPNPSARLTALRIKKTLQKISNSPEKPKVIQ
Chain of Dual specificity mitogen-activated protein kinase kinase 6 (Homo sapiens) (P52564 whole entry): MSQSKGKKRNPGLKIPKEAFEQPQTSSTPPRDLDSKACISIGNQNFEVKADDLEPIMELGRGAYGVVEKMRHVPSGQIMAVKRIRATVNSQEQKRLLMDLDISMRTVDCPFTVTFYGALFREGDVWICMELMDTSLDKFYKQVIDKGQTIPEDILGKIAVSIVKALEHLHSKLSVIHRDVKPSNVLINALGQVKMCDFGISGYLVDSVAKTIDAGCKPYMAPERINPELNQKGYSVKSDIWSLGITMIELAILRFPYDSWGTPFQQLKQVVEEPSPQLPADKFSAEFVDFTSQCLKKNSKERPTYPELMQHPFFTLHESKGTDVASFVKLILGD
Chain of Activin receptor type-1 (Q04771 whole entry): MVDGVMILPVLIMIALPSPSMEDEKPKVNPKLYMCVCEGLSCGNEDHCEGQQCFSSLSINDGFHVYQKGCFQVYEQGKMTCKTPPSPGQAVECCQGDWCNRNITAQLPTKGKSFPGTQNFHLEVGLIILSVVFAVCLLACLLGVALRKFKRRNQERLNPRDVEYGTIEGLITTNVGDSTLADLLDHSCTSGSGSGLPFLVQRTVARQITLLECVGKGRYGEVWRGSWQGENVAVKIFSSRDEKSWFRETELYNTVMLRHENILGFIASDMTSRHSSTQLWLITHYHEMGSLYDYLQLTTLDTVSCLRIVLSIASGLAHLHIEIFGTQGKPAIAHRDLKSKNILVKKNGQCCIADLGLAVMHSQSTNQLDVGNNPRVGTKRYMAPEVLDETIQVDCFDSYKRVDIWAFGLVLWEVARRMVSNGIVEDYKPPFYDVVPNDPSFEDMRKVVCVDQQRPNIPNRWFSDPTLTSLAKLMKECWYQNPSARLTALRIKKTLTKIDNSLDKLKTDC
Chain of ALK4 (activin receptor type-1B) (P36896 whole entry): as the sequence (P36896 whole entry) above
Chain of TGF-beta receptor type-1 (P36897 whole entry): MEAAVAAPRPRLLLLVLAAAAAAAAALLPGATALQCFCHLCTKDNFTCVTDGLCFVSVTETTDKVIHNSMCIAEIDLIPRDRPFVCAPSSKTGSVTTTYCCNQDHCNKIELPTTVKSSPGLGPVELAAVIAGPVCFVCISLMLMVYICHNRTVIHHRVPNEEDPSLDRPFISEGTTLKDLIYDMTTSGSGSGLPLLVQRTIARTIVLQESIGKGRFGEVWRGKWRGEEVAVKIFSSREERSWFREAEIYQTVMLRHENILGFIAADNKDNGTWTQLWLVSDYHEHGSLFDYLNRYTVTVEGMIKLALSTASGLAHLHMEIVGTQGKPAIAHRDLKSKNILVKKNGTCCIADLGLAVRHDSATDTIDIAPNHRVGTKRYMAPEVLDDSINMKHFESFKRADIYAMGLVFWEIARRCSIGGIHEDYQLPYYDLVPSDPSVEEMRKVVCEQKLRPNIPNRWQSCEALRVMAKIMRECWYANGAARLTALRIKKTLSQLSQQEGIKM

In the case of `COc1cc(O)c2c(c1)CCC[C@H](O)[C@H](O)C(=O)CCC[C@H](C)OC2=O`, the IC50 – broadly, the concentration that gives 50% inhibition – in [1] worked out at 7210 nM; in [2], 217 nM; in [9], 6270 nM; in [10], 62 nM; in data set [14], 2760 nM. Further, the inhibition entry in data set [3] and in [13] was “inactive” in each case. Moreover, the result in [4] and in [5] was Active. The figures for the inhibition in data set [6] and in [8] were 100% and 89%, respectively. Also, the inhibition – broadly, the relative decrease from the control value, in per cent – in data set [7] is “Active”. Further, the inhibition at 10 µM in data set [11] and in [12] was less than 40% each time.
